Data taken from patent US9133240B2, “Compounds binding to the bacterial beta ring” (Centre National de la Recherche Scientifique, priority 2011, dated 2015).
“And” between values parts separate entries of the source, which are not always exact repeats. Identical values can stand only once. Square brackets hold non-standard residues; d marks the D form. Ends that are not written are not given here. Peptide text beside a SMILES is read from it. Phe(3,4-Cl2) = N[C@@H](Cc1ccc(Cl)c(Cl)c1)C(=O)O; Phe(4-Br) = N[C@@H](Cc1ccc(Br)cc1)C(=O)O; Cha = N[C@@H](CC1CCCCC1)C(=O)O

What was measured:
E. coli β clamp = biological target: T1, E. coli β clamp (Escherichia coli, UniProt P0A988); experiment: SPR competition assay: inhibition of P1-β interaction by challenging peptides; type: binding; conditions: for Ki (10^6 M^−1): Ki = (1 + KA[β])/IC50; for ΔG: ΔG = −RT ln Ki;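 for all read-outs here: SPR responses corrected for background, then fitted with a 1:1 Langmuir binding model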
T1 construct: made in house; host or cells: E. coli BL21 (β); P1 by solid-phase synthesis
T1 sequence (P0A988 whole entry): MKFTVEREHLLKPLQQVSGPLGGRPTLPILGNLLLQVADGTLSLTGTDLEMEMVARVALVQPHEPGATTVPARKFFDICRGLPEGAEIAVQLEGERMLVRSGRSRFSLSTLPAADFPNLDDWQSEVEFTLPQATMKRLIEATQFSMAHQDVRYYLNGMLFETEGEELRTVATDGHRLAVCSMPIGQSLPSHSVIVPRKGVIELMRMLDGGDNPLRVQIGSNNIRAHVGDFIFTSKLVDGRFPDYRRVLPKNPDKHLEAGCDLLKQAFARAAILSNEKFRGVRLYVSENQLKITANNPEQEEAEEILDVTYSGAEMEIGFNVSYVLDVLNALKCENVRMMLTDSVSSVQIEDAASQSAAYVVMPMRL
Description: SPR experiments were performed on a Biacore® 3000. […] After subtraction of the background response, the data were fit to the 1:1 Langmuir model using BIAevaluation (Biacore™). […] IC50 values for each challenging peptide were determined by plotting the concentration of peptide against the percentage of binding inhibition. The IC50 value of each peptide was used to calculate Ki (Ki=(1+KA[β])/IC50) which measures the affinity of the challenging peptide for β in the competition assay, and AG was derived from Ki (ΔG=RT ln Ki).

β ring [1] = biological target: T2, β ring (Escherichia coli, UniProt P0A988); experiment: Isothermal titration calorimetry (ITC) of peptides into β ring solution; type: binding, E. coli; conditions: for N: number of binding sites per β monomer / Kd / ΔS (cal/mol/deg): ITC; for ΔΔG (Kcal/mol) = ΔGj − ΔGi, reference i = P7: compared to P7; for ΔΔG (Kcal/mol) = ΔGj − ΔGi, reference i = P11: compared to P11
T2 construct: made in house; host or cells: E. coli BL21
Description: ITC was performed by using a ITC200 microcalorimeter from MicroCal. Peptides (400 μM) were titrated in sequential injections (2 μl each) into a β ring solution (300 μl, 20 or 30 μM) at 25° C. Data were corrected from control experiments where peptides were injected in buffer solution (Hepes 10 mM pH 7.4, NaCl 0.15M, EDTA 3 mM, P20 0.005%). Data analysis was performed with Origin 7.0 software.
Target sequence in this assay (P0A988 whole entry): as above

β ring [2] = biological target: T2, β ring; experiment: IC50 SPR (μM)
From the text: Table printed on a drawing sheet, Figure 4
Head of the field: IC50 SPR (μM)
The patent's description of the figure: FIG. 4: Polymerase competition assay. […] Grey: biochemical assay, black: SPR assay. P15 sequence is Ac-RQLVLF, (SEQ ID No: 15), Scr: scrambled peptide: Ac-ChaFQLD, (SEQ ID No: 33).
First copying reader's note: The biochemical assay row is printed with decimal commas and the SPR row with decimal points.
Where the first naming reader finds the target: passage: the relative affinity of two compounds for the β ring is not dependent from the technique used for measuring said affinities (FIG. 4B)
Target sequence in this assay (P0A988 whole entry, looked up): as the sequence (P0A988 whole entry) above

[3] = IC50 (μM), SPR, inhibition of binding of β ring (0.25 μM) to immobilized P1
[4] = peptide 400 μM, β 20 or 30 μM, 25° C
[5] = Kd (nM), peptide 400 μM, β 20 or 30 μM, 25° C

Molecule	IC50 (E. coli β clamp; [3])	Ki (10^6 M^−1) (E. coli β clamp; SPR)	ΔG (E. coli β clamp; SPR)	N: number of binding sites per β monomer (β ring [1]; [4])	ΔΔG (Kcal/mol) = ΔGj − ΔGi, reference i = P7 (β ring [1]; from ITC data)	ΔΔG (Kcal/mol) = ΔGj − ΔGi, reference i = P11 (β ring [1]; from ITC data)	fold increase compared to the full PolIV enzyme (E. coli β clamp)	IC50 (E. coli β clamp; IC50 SPR (nM), SPR)	fold increase in interaction/affinity compared to P6 (E. coli β clamp; SPR)	fold increase compared to P1 (E. coli β clamp; SPR IC50)	Kd (β ring [1]; [5])	ΔΔG (Kcal/mol) = ΔGj − ΔGi, reference i = P12 (β ring [1]; from ITC data, compared to P12)	ΔΔG (Kcal/mol) = ΔGj − ΔGi, reference i = P13 (β ring [1]; from ITC data, compared to P13)	IC50 (β ring [2])	ΔS (cal/mol/deg) (β ring [1]; 25° C)	fold less efficient binding to the ring compared to the whole polymerase PolIV (E. coli β clamp; SPR)	Kd (β ring [1]; affinity (ITC))
CC(=O)N[C@@H](CCC(N)=O)C(=O)N[C@@H](CC1CCCCC1)C(=O)N[C@@H](CC(=O)O)C(=O)N[C@@H](CC(C)C)C(=O)N[C@@H](Cc1ccc(Br)cc1)C(=O)O [Peptide P13, Ac-Gln-Cha-Asp-Leu-pBrPhe-OH] (Ac-Q[Cha]DL[Phe(4-Br)]-OH)	0.096 µM	13.49 10^6 M^−1	-9.71 kcal/mol	0.85 and 0.83	-0.28 kcal/mol	-0.53 kcal/mol											
CC(=O)N[C@@H](CCC(N)=O)C(=O)N[C@@H](CC1CCCCC1)C(=O)N[C@@H](CC(=O)O)C(=O)N[C@@H](CC(C)C)C(=O)N[C@@H](Cc1ccc(Cl)c(Cl)c1)C(=O)O [Peptide P14, Ac-Gln-Cha-Asp-Leu-(3,4-di-Cl)Phe-OH] (Ac-Q[Cha]DL[Phe(3,4-Cl2)]-OH)	0.077 µM	17 10^6 M^−1	-9.85 kcal/mol	0.91 and 0.90	-0.8 kcal/mol	-1.05 kcal/mol	4 fold	0.07 µM	15 fold	115 fold	~60 nM	-0.2 kcal/mol	-0.52 kcal/mol				
Ac-RQLVLF [Peptide P15, Ac-RQLVLF]														1910 nM			
H-RQLVLF-OH [Peptide P3, H-Arg-Gln-Leu-Val-Leu-Phe-OH]	8.62 µM	0.15 10^6 M^−1	-7.04 kcal/mol	1.54 and 1.45							2820 nM and 2320 nM				6.05 cal/mol/deg and 6.6 cal/mol/deg		
H-RQLVLGL-OH [Peptide P1, H-Arg-Gln-Leu-Val-Leu-Gly-Leu-OH, reference compound]	8.85 µM	0.15 10^6 M^−1	-7.06 kcal/mol	1.33 and 1.31											12.8 cal/mol/deg and 7.6 cal/mol/deg	30 fold	1000 to 2000 nM
